Where two headings read alike, the source gives them in different places. Marks after values point to notes of the source that are not given here.
Columns and labels:
[1] = previously studied MILs, Table 2, cited from earlier work
[2] = SQUID magnetometer; previously studied MILs, Table 2; cited from earlier work
[3] = previously referenced MILs, cited from earlier work
[4] = GC-FID; previously referenced MILs; cited from earlier work
[5] = Viscosity, Brookfield DVI cone and plate viscometer; type: physicochemical; details: 21.7° C.; neat MIL dried 48 hours under vacuum
Method in brief: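 Cone and plate viscometer with CPA-51Z spindle, about 0.5 g of each MIL after 48 h vacuum drying. Measured at 21.6–21.7 °C.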

[6] = Effective magnetic moment from magnetic susceptibility balance (MSB); type: physicochemical; details: per formula unit
Method in brief: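 Magnetic susceptibility (XM) measured on a magnetic susceptibility balance for 15 rare-earth and transition-metal MILs. μeff derived from XM and the measurement temperature T. Transition-metal MILs also checked by SQUID magnetometry for paramagnetism and any magnetic transition.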

[7] = Solubility of MILs in organic solvents and water; type: physicochemical
Excerpt: The solubility of lanthanide and transition metal MILs was investigated in popular traditional organic solvents. […]
The solubility of lanthanide and transition metal MILs was investigated in popular traditional organic solvents.

[8] = Thermal stability, MIL as GC stationary phase with FID; type: physicochemical; details: exponential increase in response beyond 2,000 pA
Method in brief: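 TGA run from 40 to 350 °C at 5 °C min^−1. For a more sensitive check, MILs served as GC stationary phase under an oven program of 40 to 200 °C at 1 °C min^−1, with decomposition/degradation products detected by FID.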

[9] = Thermal stability by thermogravimetric analysis (TGA); type: physicochemical; details: TGA at 10% weight loss
Method in brief: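 Mass loss measured by TGA from 40 to 350 °C at 5 °C min^−1. Degradation also checked with the MILs used as GC stationary phase, oven 40 to 200 °C at 1 °C min^−1, with FID detection of decomposition products.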

[10] = acetone, chloroform, dichloromethane, acetonitrile, methanol, ethanol, diethyl ether, ethyl acetate, isopropanol at 20% (w/v)
[11] = hexane, heptane, benzene, toluene at 10% (w/v)
[12] = hexane, heptane, benzene, toluene at 20% (w/v)

Row | Structure (SMILES) | Viscosity ([1]; reported at 20.0° C.) | Effective magnetic moment [2] | Viscosity ([1]; reported at 19.9° C.) | Solubility [3, 10] | Solubility [3, 11] | Solubility ([3]; water at 0.01% (w/v)) | Onset of MIL volatilization (° C.)^1 [4] [°C] | Viscosity ([1]; reported at 23.7° C.) | other results
1 | CCCCCCCCCCCCCC[P+](CCCCCC)(CCCCCC)CCCCCC.CCCCCCCCCCCCCC[P+](CCCCCC)(CCCCCC)CCCCCC.CCCCCCCCCCCCCC[P+](CCCCCC)(CCCCCC)CCCCCC.[Cl-].[Cl-].[Cl-].[Cl-].[Cl-].[Cl-].[Gd+3] [[P66614]3[GdCl6]] | 28,230^d | 7.86^f | – | – | – | – | – | – | –
2 | CCCCCCCCCCCCCC[P+](CCCCCC)(CCCCCC)CCCCCC.CCCCCCCCCCCCCC[P+](CCCCCC)(CCCCCC)CCCCCC.[Cl-].[Cl-].[Cl-].[Cl-].[Mn+2] [[P66614]2[MnCl4]] | 112,300^d | 5.81^f | – | – | – | – | – | – | –
3 | CCCCCCCCN(CCCCCCCC)C(=O)COCC(=O)N(CCCCCCCC)CCCCCCCC.CCCCCCCCN(CCCCCCCC)C(=O)COCC(=O)N(CCCCCCCC)CCCCCCCC.O=C(C=C([O-])C(F)(F)F)C(F)(F)F.O=C(C=C([O-])C(F)(F)F)C(F)(F)F.O=C(C=C([O-])C(F)(F)F)C(F)(F)F.O=C(C=C([O-])C(F)(F)F)C(F)(F)F.O=C(C=C([O-])C(F)(F)F)C(F)(F)F.O=C(C=C([O-])C(F)(F)F)C(F)(F)F.[Co+2].[Co+2].[Co+2] [[Co(TODGA)2][Co(hfacac)3]2] | – | 13.34^f | 28,310^e | S^b (soluble in acetone, chloroform, dichloromethane, acetonitrile, methanol, ethanol, diethyl ether, ethyl acetate, and isopropanol at 20% (w/v).) | S^a (soluble in hexane, heptane, benzene, and toluene at 10% (w/v).) | S^f (insoluble in water at 0.01% (w/v).) | 231 | – | –
4 | CCCCCCCCN(CCCCCCCC)C(=O)COCC(=O)N(CCCCCCCC)CCCCCCCC.CCCCCCCCN(CCCCCCCC)C(=O)COCC(=O)N(CCCCCCCC)CCCCCCCC.CCCCCCCCN(CCCCCCCC)C(=O)COCC(=O)N(CCCCCCCC)CCCCCCCC.O=C(C=C([O-])C(F)(F)F)C(F)(F)F.O=C(C=C([O-])C(F)(F)F)C(F)(F)F.O=C(C=C([O-])C(F)(F)F)C(F)(F)F.O=C(C=C([O-])C(F)(F)F)C(F)(F)F.O=C(C=C([O-])C(F)(F)F)C(F)(F)F.O=C(C=C([O-])C(F)(F)F)C(F)(F)F.O=C(C=C([O-])C(F)(F)F)C(F)(F)F.O=C(C=C([O-])C(F)(F)F)C(F)(F)F.O=C(C=C([O-])C(F)(F)F)C(F)(F)F.O=C(C=C([O-])C(F)(F)F)C(F)(F)F.O=C(C=C([O-])C(F)(F)F)C(F)(F)F.O=C(C=C([O-])C(F)(F)F)C(F)(F)F.[Gd+3].[Gd+3].[Gd+3].[Gd+3] [[Gd(TODGA)3][Gd(hfacac)4]3] | – | 14.90^f | 13,640^e | S^b (soluble in acetone, chloroform, dichloromethane, acetonitrile, methanol, ethanol, diethyl ether, ethyl acetate, and isopropanol at 20% (w/v).) | S^a (soluble in hexane, heptane, benzene, and toluene at 10% (w/v).) | S^f (insoluble in water at 0.01% (w/v).) | 183 | – | Solubility [3, 12]: S^c (soluble in hexane, heptane, benzene, and toluene at 20% (w/v).)
5 | CCCCCCCCCCCCCC[P+](CCCCCC)(CCCCCC)CCCCCC.O=C(C=C([O-])C(F)(F)F)C(F)(F)F.O=C(C=C([O-])C(F)(F)F)C(F)(F)F.O=C(C=C([O-])C(F)(F)F)C(F)(F)F.[Co+2] [[P66614][Co(hfacac)3]] | – | 4.30^f | – | S^b (soluble in acetone, chloroform, dichloromethane, acetonitrile, methanol, ethanol, diethyl ether, ethyl acetate, and isopropanol at 20% (w/v).) | S^a (soluble in hexane, heptane, benzene, and toluene at 10% (w/v).) | S^f (insoluble in water at 0.01% (w/v).) | 130 | 575.8^c | –
6 | CCCCCCCCN(CCCCCCCC)C(=O)COCC(=O)N(CCCCCCCC)CCCCCCCC.CCCCCCCCN(CCCCCCCC)C(=O)COCC(=O)N(CCCCCCCC)CCCCCCCC.O=C(C=C([O-])C(F)(F)F)C(F)(F)F.O=C(C=C([O-])C(F)(F)F)C(F)(F)F.O=C(C=C([O-])C(F)(F)F)C(F)(F)F.O=C(C=C([O-])C(F)(F)F)C(F)(F)F.O=C(C=C([O-])C(F)(F)F)C(F)(F)F.O=C(C=C([O-])C(F)(F)F)C(F)(F)F.[Ni+2].[Ni+2].[Ni+2] [[Ni(TODGA)2][Ni(hfacac)3]2] | – | 11.79^f | 33,830^e | S^b (soluble in acetone, chloroform, dichloromethane, acetonitrile, methanol, ethanol, diethyl ether, ethyl acetate, and isopropanol at 20% (w/v).) | S^a (soluble in hexane, heptane, benzene, and toluene at 10% (w/v).) | S^f (insoluble in water at 0.01% (w/v).) | 235 | – | –
7 | CCCCCCCCCCCCCC[P+](CCCCCC)(CCCCCC)CCCCCC.O=C(C=C([O-])C(F)(F)F)C(F)(F)F.O=C(C=C([O-])C(F)(F)F)C(F)(F)F.O=C(C=C([O-])C(F)(F)F)C(F)(F)F.[Mn+2] [[P66614][Mn(hfacac)3]] | – | 5.80^f | – | S^b (soluble in acetone, chloroform, dichloromethane, acetonitrile, methanol, ethanol, diethyl ether, ethyl acetate, and isopropanol at 20% (w/v).) | S^a (soluble in hexane, heptane, benzene, and toluene at 10% (w/v).) | S^f (insoluble in water at 0.01% (w/v).) | 155 | 401.8^c | –
8 | CCCCCCCCCCCCCC[P+](CCCCCC)(CCCCCC)CCCCCC.CCCCCCCCCCCCCC[P+](CCCCCC)(CCCCCC)CCCCCC.[Cl-].[Cl-].[Cl-].[Cl-].[Co+2] [[P66614]2[CoCl4]] | 123,500^d | 4.45^f | – | – | – | – | – | – | –
9 | CCCCCCCCCCCCCC[P+](CCCCCC)(CCCCCC)CCCCCC.O=C(C=C([O-])C(F)(F)F)C(F)(F)F.O=C(C=C([O-])C(F)(F)F)C(F)(F)F.O=C(C=C([O-])C(F)(F)F)C(F)(F)F.[Ni+2] [[P66614][Ni(hfacac)3]] | – | 2.80^f | – | S^b (soluble in acetone, chloroform, dichloromethane, acetonitrile, methanol, ethanol, diethyl ether, ethyl acetate, and isopropanol at 20% (w/v).) | S^a (soluble in hexane, heptane, benzene, and toluene at 10% (w/v).) | S^f (insoluble in water at 0.01% (w/v).) | 225 | 927.9^c | –
10 | CCCCCCCCOC(=O)c1ccc(C(=O)OCCCCCCCC)o1.CCCCCCCCOC(=O)c1ccc(C(=O)OCCCCCCCC)o1.CCCCCCCCOC(=O)c1ccc(C(=O)OCCCCCCCC)o1.CCCCCCCCOC(=O)c1ccc(C(=O)OCCCCCCCC)o1.CCCCCCCCOC(=O)c1ccc(C(=O)OCCCCCCCC)o1.CCCCCCCCOC(=O)c1ccc(C(=O)OCCCCCCCC)o1.O=C(C=C([O-])C(F)(F)F)C(F)(F)F.O=C(C=C([O-])C(F)(F)F)C(F)(F)F.O=C(C=C([O-])C(F)(F)F)C(F)(F)F.O=C(C=C([O-])C(F)(F)F)C(F)(F)F.O=C(C=C([O-])C(F)(F)F)C(F)(F)F.O=C(C=C([O-])C(F)(F)F)C(F)(F)F.[Co+2].[Co+2].[Co+2] [compound 10] | – | – | – | – | – | – | – | – | Viscosity (cP) [5]: 354.7^b cP; μeff, effective magnetic moment [6]: 8.27 μB; Solubility [7, 10]: S^b (soluble in acetone, chloroform, dichloromethane, acetonitrile, methanol, ethanol, diethyl ether, ethyl acetate, and isopropanol at 20% (w/v).); Solubility [7, 11]: S^a (soluble in hexane, heptane, benzene, and toluene at 10% (w/v).); Solubility [7, 12]: S^c (soluble in hexane, heptane, benzene, and toluene at 20% (w/v).); Solubility ([7]; twelve organic solvents (without acetonitrile) at 50% (w/v)): S^d (soluble in acetone, chloroform, dichloromethane, methanol, ethanol, diethyl ether, ethyl acetate, isopropanol hexane, heptane, benzene, and toluene at 50% (w/v).); Solubility ([7]; water at 0.01% (w/v)): S^f (insoluble in water at 0.01% (w/v).); Onset of MIL volatilization (° C.)^1 [8]: 147 °C; Onset of MIL volatilization (° C.)^2 [9]: 163.0 °C
